# Results reported in DBAASP.
# Experiments:
# Experiment in all cases: ≥ marks a high value that may be exact or a test limit, other limits are often not marked, values filed in µg/mL are converted to µM
# [1] = test system: Pseudomonas aeruginosa OT97
# [2] = test system: Staphylococcus aureus JC-1
# [3] = test system: Escherichia coli D21
# [4] = test system: Candida albicans ATCC 90028
# [5] = test system: Bacillus subtilis ATCC 6633
# [6] = test system: Proteus vulgaris OX19 ATCC 6380
# [7] = test system: Bacillus megaterium Bm11
# [8] = test system: Trichophyton rubrum KCTC 6345
# [9] = test system: Micrococcus luteus Ml11
# [10] = test system: Malassezia furfur KCTC 7744
# [11] = test system: Shigella flexneri ATCC 203
# [12] = test system: Staphylococcus aureus Cowan 1
# [13] = test system: Trichosporon beigelii KCTC 7707
# [14] = test system: Burkholderia thailandensis
# [15] = test system: Staphylococcus aureus UL12
# [16] = test system: Bacillus anthracis Sterne 34F2
# [17] = test system: Bacillus subtilis ATCC 9372
# [18] = test system: Escherichia coli W3110
# [19] = test system: Staphylococcus aureus
# [20] = test system: Bacillus cereus
# [21] = test system: Bacillus anthracis
# [22] = test system: Escherichia coli
# [23] = test system: Micrococcus luteus ATCC 9341
# [24] = test system: Staphylococcus aureus ATCC 29213
# [25] = test system: Streptococcus uberis
# [26] = test system: Leuconostoc lactis
# [27] = test system: Listeria innocua
# [28] = test system: Staphylococcus epidermidis ATCC 14990
# [29] = test system: Enterococcus faecalis ATCC 29212
# [30] = test system: Staphylococcus aureus P1374
# [31] = test system: Staphylococcus aureus AB94004
# [32] = test system: Bacillus thuringiensis AB92037
# [33] = test system: Staphylococcus aureus P1369
# [34] = test system: Bacillus subtilis AB91021
# [35] = test system: Escherichia coli AB94012
# [36] = test system: Staphylococcus aureus P838
# [37] = test system: Staphylococcus aureus P1386
# [38] = test system: Staphylococcus aureus P1381
# [39] = test system: Enterococcus faecalis P675
# [40] = test system: Pseudomonas aeruginosa AB93066
# [41] = test system: Micrococcus luteus AB93113
compound,measurement,setting,value
CC[C@H](C)[C@H](NC(=O)[C@H](CCCCN)NC(=O)[C@@H](NC(=O)[C@@H](NC(=O)[C@H](CCC(N)=O)NC(=O)CNC(=O)[C@H](Cc1cnc[nH]1)NC(=O)[C@H](CCC(N)=O)NC(=O)[C@H](CC(N)=O)NC(=O)[C@H](CCC(N)=O)NC(=O)[C@@H](NC(=O)[C@H](CCCCN)NC(=O)[C@@H](N)Cc1ccccc1)C(C)C)C(C)C)C(C)C)C(=O)N[C@@H](Cc1ccccc1)C(=O)N[C@@H](Cc1cnc[nH]1)C(=O)N[C@@H](Cc1cnc[nH]1)C(=O)O [FKVQNQHGQVVKIFHH],MIC,[1],≥ 617 µM
same,MIC,[2],≥ 94 µM
same,MIC,[3],≥ 410 µM
same,MIC,[4],6.3 µM
same,MIC,[5],20 µM
same,MIC,[6],≥ 1000 µM
same,MIC,[7],1.95 µM
same,MIC,[8],25 µM
same,MIC,[9],23 µM
same,MIC,[10],12.5 µM
same,MIC,[11],≥ 205 µM
same,MIC,[12],≥ 1000 µM
same,MIC,[13],6.3 µM
CC[C@H](C)[C@H](N)C(=O)N[C@@H](CC(C)C)C(=O)NCC(=O)N1CCC[C@H]1C(=O)N[C@H](C(=O)N[C@@H](CC(C)C)C(=O)NCC(=O)N[C@@H](CC(C)C)C(=O)N[C@H](C(=O)N[C@@H](CO)C(=O)N[C@@H](CC(=O)O)C(=O)N[C@H](C(=O)N[C@@H](CC(C)C)C(=O)N[C@@H](CC(=O)O)C(=O)N[C@@H](CC(=O)O)C(=O)N[C@H](C(=O)N[C@@H](CC(C)C)C(=O)NCC(=O)N[C@H](C(=O)N[C@@H](CC(C)C)C(=O)O)[C@@H](C)CC)C(C)C)[C@@H](C)O)C(C)C)C(C)C [ILGPVLGLVSDTLDDVLGIL],MIC,[14],≥ 50 µM
same,MIC,[15],≥ 180 µM
same,MIC,[16],≥ 100 µM
same,MIC,[17],≥ 50 µM
same,MIC,[18],≥ 180 µM
CC[C@H](C)[C@H](NC(=O)[C@H](CC(C)C)NC(=O)[C@H](C)NC(=O)[C@@H]1CCCN1C(=O)[C@H](Cc1ccccc1)NC(=O)[C@@H](NC(=O)[C@H](CCCCN)NC(=O)[C@H](CO)NC(=O)[C@H](C)NC(=O)[C@@H](NC(=O)[C@H](CCCN=C(N)N)NC(=O)[C@H](Cc1ccccc1)NC(=O)[C@@H](NC(=O)[C@@H](NC(=O)[C@@H]1CCCN1C(=O)[C@@H](N)CC(C)C)C(C)C)C(C)C)C(C)C)C(C)C)C(=O)N[C@@H](CO)C(=O)N[C@@H](CCCCN)C(=O)N[C@@H](CC(C)C)C(=O)N[C@H](C(=O)O)[C@@H](C)O [LPVVFRVASKVFPALISKLT],MIC,[19],117 µM
same,MIC,[20],≥ 117 µM
same,MIC,[21],≥ 58.6 µM
same,MIC,[22],> 117 µM
CC[C@H](C)[C@H](N)C(=O)N[C@H](C(=O)NCC(=O)N[C@@H](Cc1cnc[nH]1)C(=O)N[C@@H](CC(C)C)C(=O)N[C@H](C(=O)N[C@@H](CCCCN)C(=O)N[C@H](C(=O)N[C@@H](C)C(=O)N[C@@H](CC(C)C)C(=O)NCC(=O)N[C@@H](CCSC)C(=O)N[C@@H](CC(C)C)C(=O)NCC(=O)N[C@@H](CC(C)C)C(N)=O)[C@@H](C)O)[C@@H](C)CC)[C@@H](C)CC [IIGHLIKTALGMLGL],MIC,[23],25 µM
same,MIC,[20],25 µM
same,MIC,[24],12 µM
same,MIC,[25],25 µM
same,MIC,[26],12 µM
same,MIC,[27],≥ 50 µM
same,MIC,[28],25 µM
same,MIC,[29],100 µM
CC(C)C[C@H](NC(=O)[C@H](CO)NC(=O)CNC(=O)[C@H](Cc1c[nH]c2ccccc12)NC(=O)[C@H](Cc1ccccc1)NC(=O)CN)C(=O)N[C@@H](Cc1c[nH]c2ccccc12)C(=O)N[C@@H](CCC(=O)O)C(=O)NCC(=O)N[C@H](C(=O)N[C@@H](CCCCN)C(=O)N[C@@H](CO)C(=O)N[C@H](C(=O)N[C@H](C(N)=O)C(C)C)C(C)C)C(C)C [GFWGSLWEGVKSVV],MIC,[30],≥ 129 µM
same,MIC,[31],8.06 µM
same,MIC,[32],≥ 64.5 µM
same,MIC,[33],≥ 80.6 µM
same,MIC,[34],≥ 64.5 µM
same,MIC,[35],≥ 64.5 µM
same,MIC,[36],≥ 32.2 µM
same,MIC,[37],≥ 161 µM
same,MIC,[38],≥ 322 µM
same,MIC,[39],≥ 32.2 µM
same,MIC,[40],≥ 64.5 µM
same,MIC,[41],≥ 64.5 µM
